target: T1, His-hMAGL (recombinant polyhistidine tagged human MAGL protein) (Homo sapiens, UniProt Q99685); assay: Measurement of MAGL inhibitory activity (RapidFire-mass spectrometry of arachidonic acid produced from 2-arachidonylglycerol); format: biochemical; conditions: test compound 10 μM; His-hMAGL; substrate 2-arachidonylglycerol; 60 min preincubation
T1 construct: polyhistidine (His) (N); made in house; host or cells: E. coli BL21(DE3)
T1 sequence (Q99685 1-303): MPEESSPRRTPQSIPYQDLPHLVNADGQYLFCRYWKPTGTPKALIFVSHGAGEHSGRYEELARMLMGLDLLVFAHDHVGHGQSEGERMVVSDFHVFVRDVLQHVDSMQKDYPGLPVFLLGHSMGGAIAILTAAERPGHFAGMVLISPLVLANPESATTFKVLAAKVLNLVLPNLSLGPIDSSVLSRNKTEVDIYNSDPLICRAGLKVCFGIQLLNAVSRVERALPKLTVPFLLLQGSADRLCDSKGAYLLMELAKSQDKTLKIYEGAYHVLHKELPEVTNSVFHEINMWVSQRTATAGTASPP
In short: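 After quenching with acetonitrile containing 3 μM arachidonic acid-d8, the arachidonic acid formed was measured by online SPE RapidFire-MS/MS in negative SRM mode and corrected against the d8 standard. Inhibition (%) was calculated relative to compound-free and enzyme-free groups.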

Row | SMILES | % inhibition (10 μM) [%]
1 | CC(Oc1ccc(F)cc1C(F)(F)F)C1CCN(C(=O)[C@H]2C[C@]3(COC(=O)N3)C2)CC1 (stereo partly shown) [Example 67, (2s,4s)-2-((4-(1-(4-fluoro-2-(trifluoromethyl)phenoxy)ethyl)piperidin-1-yl)carbonyl)-7-oxa-5-azaspiro[3.4]octan-6-one] | 100
2 | CC(Oc1ccc(C(F)(F)F)cc1F)C1CN(C(=O)[C@H]2C[C@]3(COC(=O)N3)C2)C1 (stereo partly shown) [Example 13, (2s,4s)-2-((3-(1-(2-fluoro-4-(trifluoromethyl)phenoxy)ethyl)azetidin-1-yl)carbonyl)-7-oxa-5-azaspiro[3.4]octan-6-one] | 100

same assay, conditions: test compound 10 μM; His-hMAGL; substrate 2-arachidonylglycerol; 60 min preincubation; read-out: % inhibition (10 μM)

Row | SMILES | inhibition at 10 µM [%]
3 | Cc1cc(C(F)(F)F)ccc1COC1CN(C(=O)[C@H]2C[C@]3(COC(=O)N3)C2)C1 [Example 93, (2s,4s)-2-((3-((2-methyl-4-(trifluoromethyl)benzyl)oxy)azetidin-1-yl)carbonyl)-7-oxa-5-azaspiro[3.4]octan-6-one] | 100
4 | O=C1N[C@]2(CO1)C[C@H](C(=O)N1CC(COc3cc(Br)c(C(F)(F)F)cc3F)C1)C2 [Example 41, (2s,4s)-2-((3-((5-bromo-2-fluoro-4-(trifluoromethyl)phenoxy)methyl)azetidin-1-yl)carbonyl)-7-oxa-5-azaspiro[3.4]octan-6-one] | 101
5 | Cc1ccc(COC2CN(C(=O)[C@H]3C[C@@]4(COC(=O)N4)C3)C2)cc1Cl [Example 123, (2r,4r)-2-((3-((3-chloro-4-methylbenzyl)oxy)azetidin-1-yl)carbonyl)-7-oxa-5-azaspiro[3.4]octan-6-one] | 99
6 | O=C1N[C@]2(CO1)C[C@H](C(=O)N1CCC(C(F)(F)c3ccc(Cl)cc3Cl)CC1)C2 [Example 8, (2s,4s)-2-((4-((2,4-dichlorophenyl)(difluoro)methyl)piperidin-1-yl)carbonyl)-7-oxa-5-azaspiro[3.4]octan-6-one] | 100
7 | CC(Oc1ccc(C(F)(F)F)cc1F)C1CCN(C(=O)[C@H]2C[C@]3(COC(=O)N3)C2)CC1 (stereo partly shown) [Example 35, (2s,4s)-2-((4-(1-(2-fluoro-4-(trifluororoethyl)phenoxy)ethyl)piperidin-1-yl)carbonyl)-7-oxa-5-azaspiro[3.4]octan-6-one] | 101
8 | O=C1N[C@]2(CO1)C[C@H](C(=O)N1CCC(COc3ccc(C(F)(F)F)cc3Cl)CC1)C2 [Example 19, (2s,4s)-2-((4-((2-chloro-4-(trifluoromethyl)phenoxy)methyl)piperidin-1-yl)carbonyl)-7-oxa-5-azaspiro[3.4]octan-6-one] | 101
9 | O=C1N[C@]2(CO1)C[C@H](C(=O)N1CCC(C(F)(F)c3ccc(F)cc3Cl)CC1)C2 [Example 112, (2s,4s)-2-((4-((2-chloro-4-fluorophenyl)(difluoro)methyl)piperidin-1-yl)carbonyl)-7-oxa-5-azaspiro[3.4]actan-6-one] | 100
10 | CC(Oc1ccc(F)cc1C(F)(F)F)C1CCN(C(=O)[C@H]2C[C@]3(COC(=O)N3)C2)CC1 (stereo partly shown) [Example 59, (2s,4s)-2-((4-(1-(4-fluoro-2-(trifluoromethyl)phenoxy)ethyl)piperidin-1-yl)carbonyl)-7-oxa-5-azaspiro[3.4]octan-6-one] | 100
11 | O=C1N[C@]2(CO1)C[C@H](C(=O)N1CC(CC(F)(F)c3ccc(C(F)(F)F)c(Cl)c3)C1)C2 [Example 110, (2s,4s)-2-((3-(2-(3-chloro-4-(trifluoromethyl)phenyl)-2,2-difluoroethyl)azetidin-1-yl)carbonyl)-7-oxa-5-azaspiro[3.4]octan-6-one] | 100
12 | Cc1cc(COC2CN(C(=O)[C@H]3C[C@]4(COC(=O)N4)C3)C2)c(F)cc1C(F)(F)F [Example 115, (2s,4s)-2-((3-((2-fluoro-5-methyl-4-(trifluoromethyl)benzyl)oxy)azetidin-1-yl)carbonyl)-7-oxa-5-azaspiro[3.4]octan-6-one] | 100
13 | Cc1cc(F)ccc1OC(C)C1CCN(C(=O)[C@H]2C[C@]3(COC(=O)N3)C2)CC1 (stereo partly shown) [Example 20, (2s,4s)-2-((4-(1-(4-fluoro-2-methylphenoxy)ethyl)piperidin-1-yl)carbonyl)-7-oxa-5-azaspiro[3.4]octan-6-one] | 100
14 | CC1(C2CCN(C(=O)[C@H]3C[C@]4(CCC(=O)N4)C3)CC2)Cc2cc(F)ccc2O1 (stereo partly shown) [Example 5, (2r,4s)-2-((4-(5-fluoro-2-methyl-2,3-dihydro-1-benzofuran-2-yl)piperidin-1-yl)carbonyl)-5-azaspiro[3.4]octan-6-one] | 100
15 | CC1(C2CCN(C(=O)[C@H]3C[C@]4(COC(=O)N4)C3)CC2)Cc2cc(F)cc(F)c2O1 (stereo partly shown) [Example 16, (2s,4s)-2-((4-(5,7-difluoro-2-methyl-2,3-dihydro-1-benzofuran-2-yl)piperidin-1-yl)carbonyl)-7-oxa-5-azaspiro[3.4]octan-6-one] | 100
16 | CCC1(COc2ccc(F)cc2Cl)CCN(C(=O)[C@H]2C[C@]3(COC(=O)N3)C2)CC1 [Example 44, (2s,4s)-2-((4-((2-chloro-4-fluorophenoxy)methyl)-4-ethylpiperidin-1-yl)carbonyl)-7-oxa-5-azaspiro[3.4]octan-6-one] | 101
17 | CC(Oc1ccc(F)cc1C(F)(F)F)C1CCN(C(=O)[C@H]2C[C@]3(CCC(=O)N3)C2)CC1 (stereo partly shown) [Example 73, (2r,4s)-2-((4-(1-(4-fluoro-2-(trifluoromethyl)phenoxy)ethyl)piperidin-1-yl)carbonyl)-5-azaspiro[3.4]octan-6-one] | 100
18 | N#Cc1cc(Cl)ccc1OCC1CCN(C(=O)[C@H]2C[C@]3(COC(=O)N3)C2)CC1 [Example 129, 5-chloro-2-((1-(((2s,4s)-6-oxo-7-oxa-5-azaspiro[3.4]oct-2-yl)carbonyl)piperidin-4-yl)methoxy)benzonitrile] | 100
19 | Cc1cc(OCC2CN(C(=O)[C@H]3C[C@]4(COC(=O)N4)C3)C2)c(F)cc1C(F)(F)F [Example 72, (2s,4s)-2-((3-((2-fluoro-5-methyl-4-(trifluoromethyl)phenoxy)methyl)azetidin-1-yl)carbonyl)-7-oxa-5-azaspiro[3.4]octan-6-one] | 101
20 | CC1(C2CCN(C(=O)[C@H]3C[C@]4(COC(=O)N4)C3)CC2)Cc2cc(C(F)(F)F)ccc2O1 (stereo partly shown) [Example 53, (2s,4s)-2-((4-(2-methyl-5-(trifluoromethyl)-2,3-dihydro-1-benzofuran-2-yl)piperidin-1-yl)carbonyl)-7-oxa-5-azaspiro[3.4]octan-6-one] | 101

tested on: intracerebral 2-AG and arachidonic acid; assay: Measurement of intracerebral 2-AG and arachidonic acid concentrations; format: in vivo, mouse (C57BL/6J); conditions: cerebrum of male C57BL/6J mice; 3 mg/kg body weight by gavage; isolated 1 hour after administration; control 9.9
Experimental: As the mouse, 8-week-old male C57BL/6J mice (CLEA Japan, Inc.) were used (6 mice/group). Administration solutions were prepared by suspending the test compounds (compound 1 (compound of Example 6), compound 2 (compound of Example 93) and compound 3 (compound of Example 97)) in 0.5% methylcellulose solution (Wako Pure Chemical Industries, Ltd.). The dose of the test compound was prepared to be 3 mg/kg body weight/10 mL. The test compounds were administered by gavage at 3 mg/kg body weight. The cerebrum was isolated after the administration of the test compound (isolation time after the administration of the test compound is shown in Table 3), and the cerebrum hemisphere was extracted. The obtained cerebrum hemisphere was frozen on dry ice, and the frozen tissue weight was measured.
The cerebral tissue weight was measured, and cerebral tissue was homogenized with 4-fold (v/w) of isopropanol (IPA), and double diluted with IPA. To the diluted sample (200 μL) was added internal standard solution (5 μL) ([5,6,8,9,11,12,14,15-D8]-(5Z,8Z,11Z,14Z)5,8,11,14-eicosatetraenoic acid (AA-d8, 0.5 nmol/mL IPA) and [5,6,8,9,11,12,14,15-D8]-(5Z,8Z,11Z,14Z)-5,8,11,14-eicosatetraenoyl-2-glycerol ester (2-AG-d8, 0.5 nmol/mL IPA)), and the mixture was centrifuged at 15000 rpm for 5 min. The supernatant was injected to liquid chromatographymass spectrometer to perform quantitative analysis.
For liquid chromatography, Shimadzu LC20A system (Shimadzu Corporation) was used. The separation was performed by gradient elution method with mobile phase A (10 mmol/L HCOONH4/HCOOH (100:0.2, v/v)) and mobile phase B (ethanol/IPA (3:2, v/v)) using Shim-pack XR-ODS (2.2 μm, 2.0×30 mm, Shimadzu Corporation) at column temperature of 50° C., at flow rate of 0.5 mL/min. The gradient conditions are as follows: 0-1 min, 1% B; 1-1.2 min, 1-55% B; 1.2-2.7 min, 55-75% B; 2.7-3.5 min, 75-99% B; 3.5-6 min, 99% B; 6-8 min, 1% B.
For mass spectrometer, API5000 (AB SCIEX) was used. The eluate from the liquid chromatography was directly ionized by turbospray ionization method, where (5Z,8Z,11Z,14Z)5,8,11,14-eicosatetraenoic acid (AA) and AA-d8 were measured by negative ionization mode, and (5Z,8Z,11Z,14Z)5,8,11,14-eicosatetraenoyl-2-glycerol ester (2-AG) and 2-AG-d8 were measured by positive ionization mode.
A solution for calibration curve was prepared to the concentration of 2, 5, 10, 20, 50, 100, 200, 500, 1000 nmol/mL of acetonitrile. These solutions (10 μL) was mixed with 200 μL of IPA and 5 μL of internal standard solution, and the mixture was centrifuged at 15000 rpm for 5 min, and the supernatant was injected to liquid chromatography mass spectrometer to perform analysis. The calibration curve was drawn by regression line with a weighting of 1/x^2, and the quantitativity was confirmed by accuracy of 100±20% and R^2>0.99.

Row | SMILES | 2-AG concentration [nmol/g]
21 | Cc1cc(C(F)(F)F)ccc1COC1CN(C(=O)[C@H]2C[C@]3(COC(=O)N3)C2)C1 [Example 93, (2s,4s)-2-((3-((2-methyl-4-(trifluoromethyl)benzyl)oxy)azetidin-1-yl)carbonyl)-7-oxa-5-azaspiro[3.4]octan-6-one] | 125.2

same assay, conditions: cerebrum of male C57BL/6J mice; 3 mg/kg body weight by gavage; isolated 1 hour after administration; control 163.5

Row | SMILES | arachidonic acid concentration [nmol/g]
22 | Cc1cc(C(F)(F)F)ccc1COC1CN(C(=O)[C@H]2C[C@]3(COC(=O)N3)C2)C1 [Example 93, (2s,4s)-2-((3-((2-methyl-4-(trifluoromethyl)benzyl)oxy)azetidin-1-yl)carbonyl)-7-oxa-5-azaspiro[3.4]octan-6-one] | 42.6

same assay, conditions: oral administration to C57BL/6J mice

Row | SMILES | migration into brain
23 | Cc1cc(C(F)(F)F)ccc1COC1CN(C(=O)[C@H]2C[C@]3(COC(=O)N3)C2)C1 [Example 93, (2s,4s)-2-((3-((2-methyl-4-(trifluoromethyl)benzyl)oxy)azetidin-1-yl)carbonyl)-7-oxa-5-azaspiro[3.4]octan-6-one] | migrated into brain

same assay, conditions: oral administration to C57BL/6J mice; result in words

Row | SMILES | intracerebral 2-AG concentration compared to control | intracerebral arachidonic acid concentration compared to control
24 | Cc1cc(C(F)(F)F)ccc1COC1CN(C(=O)[C@H]2C[C@]3(COC(=O)N3)C2)C1 [Example 93, (2s,4s)-2-((3-((2-methyl-4-(trifluoromethyl)benzyl)oxy)azetidin-1-yl)carbonyl)-7-oxa-5-azaspiro[3.4]octan-6-one] | increased significantly | decreased significantly
